Data taken from patent US10123993B2, “Cyclic ureas as inhibitors of rock” (BRISTOL-MYERS SQUIBB COMPANY, priority 2015, dated 2018).

What follows are molecules tested against ROCK2 (Homo sapiens, UniProt O75116) (assay: ROCK2 kinase inhibition assay (Caliper LABCHIP, FITC peptide substrate)). Details: 5 μM ATP, 1.5 μM peptide substrate; value ranges.
Chain of ROCK2 (O75116 whole entry, species assumed): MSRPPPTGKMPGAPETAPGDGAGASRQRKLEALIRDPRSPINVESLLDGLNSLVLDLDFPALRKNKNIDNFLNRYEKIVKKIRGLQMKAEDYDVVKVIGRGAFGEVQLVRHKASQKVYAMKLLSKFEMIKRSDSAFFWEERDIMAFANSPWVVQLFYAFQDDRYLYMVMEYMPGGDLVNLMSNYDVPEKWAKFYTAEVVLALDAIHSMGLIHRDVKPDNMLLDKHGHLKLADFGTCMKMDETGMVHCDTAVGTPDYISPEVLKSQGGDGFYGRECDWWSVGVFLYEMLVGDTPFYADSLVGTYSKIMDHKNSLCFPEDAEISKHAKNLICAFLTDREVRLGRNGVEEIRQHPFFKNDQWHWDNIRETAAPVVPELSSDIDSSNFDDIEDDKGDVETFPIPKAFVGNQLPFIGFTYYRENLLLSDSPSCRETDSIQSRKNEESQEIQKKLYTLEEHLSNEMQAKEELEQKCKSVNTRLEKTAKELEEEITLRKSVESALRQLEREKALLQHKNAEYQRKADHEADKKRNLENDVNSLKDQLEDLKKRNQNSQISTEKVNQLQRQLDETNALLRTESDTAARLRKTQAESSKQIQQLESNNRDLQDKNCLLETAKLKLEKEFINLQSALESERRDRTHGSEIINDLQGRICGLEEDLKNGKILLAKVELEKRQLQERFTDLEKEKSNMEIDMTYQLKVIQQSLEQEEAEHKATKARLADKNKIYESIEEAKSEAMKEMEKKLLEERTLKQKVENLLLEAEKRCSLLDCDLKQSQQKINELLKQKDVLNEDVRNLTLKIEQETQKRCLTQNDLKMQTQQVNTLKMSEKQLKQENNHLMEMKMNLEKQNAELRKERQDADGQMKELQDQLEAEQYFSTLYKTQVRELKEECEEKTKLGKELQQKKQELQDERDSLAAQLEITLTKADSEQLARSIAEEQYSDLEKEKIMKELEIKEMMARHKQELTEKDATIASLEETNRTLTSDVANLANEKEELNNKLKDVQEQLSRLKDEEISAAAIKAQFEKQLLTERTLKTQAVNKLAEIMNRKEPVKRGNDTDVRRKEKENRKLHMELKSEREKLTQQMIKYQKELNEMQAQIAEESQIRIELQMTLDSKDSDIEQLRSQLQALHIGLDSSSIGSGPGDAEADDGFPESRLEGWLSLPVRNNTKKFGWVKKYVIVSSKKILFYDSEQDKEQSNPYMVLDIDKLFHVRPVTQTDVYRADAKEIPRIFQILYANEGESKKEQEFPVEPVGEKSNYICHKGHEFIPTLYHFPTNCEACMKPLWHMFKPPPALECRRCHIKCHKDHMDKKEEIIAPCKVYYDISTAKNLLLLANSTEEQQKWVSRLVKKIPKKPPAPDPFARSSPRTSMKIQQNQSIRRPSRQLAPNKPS
Type: biochemical
How it was run: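 Rho kinase with 5 μM ATP and 1.5 μM FITC-AHA-AKRRRLSSLRA-OH peptide in HEPES pH 7.5, 20 mM MgCl2, 0.015% Brij-35, 4 mM DTT, DMSO <2%. EDTA stop; phospho and non-phospho peptide separated on LabChip. IC50 from dose-response fit.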
In the case of `O=c1n(Cc2cccc(OC(F)F)c2)ccn1-c1ccc(-c2cn[nH]c2)cc1` [Example 333, 1-(4-(1H-pyrazol-4-yl)phenyl)-3-(3-(difluoromethoxy)benzyl)-1H-imidazol-2(3H)-one], the IC50 is reported as 2.1 to 20 nM.
With `COc1cccc(Cn2ccn(-c3ccc(-c4cn[nH]c4)cc3)c2=O)c1` [Example 334, l-(4-(1H-pyrazol-4-yl)phenyl)-3-(3-methoxybenzyl)-1H-imidazol-2(3H)-one] the IC50 was < 2 nM.
Work on `O=c1n(CCc2ccccc2)ccn1-c1ccc(-c2cn[nH]c2)cc1` [Example 335, 1-(4-(1H-pyrazol-4-yl)phenyl)-3-phenethyl-1H-imidazol-2(3H)-one] yielded an IC50 of 20.1 to 200 nM.
`COc1cc(F)cc(Cn2ccn(-c3ccc(-c4cn[nH]c4)cc3)c2=O)c1` [Example 336, 1-(4-(1H-pyrazol-4-yl)phenyl)-3-(3-fluoro-5-methoxybenzyl)-1H-imidazol-2(3H)-one] showed an IC50 of 2.1 to 20 nM.
In the case of `COc1cccc(Cn2ccn(-c3ccc(-c4cn[nH]c4)cc3)c2=O)c1F` [Example 337, 1-(4-(1H-pyrazol-4-yl)phenyl)-3-(2-fluoro-3-methoxybenzyl)-1H-imidazol-2(3H)-one], the IC50 is reported as 20.1 to 200 nM.
Molecule `COc1ccc(F)c(Cn2ccn(-c3ccc(-c4cn[nH]c4)cc3)c2=O)c1` [Example 338, 1-(4-(1H-pyrazol-4-yl)phenyl)-3-(2-fluoro-5-methoxybenzyl)-1H-imidazol-2(3H)-one] has an IC50 of 20.1 to 200 nM.
For `COc1cccc(Cn2ccn(-c3ccc(-c4cn[nH]c4)c(OC)c3)c2=O)c1` [Example 342, 1-(3-methoxy-4-(1H-pyrazol-4-yl)phenyl)-3-(3-methoxybenzyl)-1H-imidazol-2(3H)-one], the IC50 was < 2 nM.
Molecule `COc1cc(F)cc(Cn2ccn(-c3ccc(-c4cn[nH]c4)c(OC)c3)c2=O)c1` [Example 343, 1-(3-fluoro-5-methoxybenzyl)-3-(3-methoxy-4-(1H-pyrazol-4-yl)phenyl)-1H-imidazol-2(3H)-one] has an IC50 of 2.1 to 20 nM.
In the case of `COc1cccc(Cn2ccn(-c3ccc(-c4cn[nH]c4)cn3)c2=O)c1` [Example 344, 1-(5-(1H-pyrazol-4-yl)pyridin-2-yl)-3-(3-methoxybenzyl)-1H-imidazol-2(3H)-one], the IC50 is reported as 2.1 to 20 nM.
`COc1cc(F)cc(Cn2ccn(-c3ccc(-c4cn[nH]c4)cn3)c2=O)c1` [Example 345, 1-(5-(1H-pyrazol-4-yl)pyridin-2-yl)-3-(3-fluoro-5-methoxybenzyl)-1H-imidazol-2(3H)-one] gave an IC50 of 2.1 to 20 nM.
For `COc1cc(Cn2ccn(-c3ccc(-c4cn[nH]c4)cn3)c2=O)ccc1F` [Example 346, 1-(5-(1H-pyrazol-4-yl)pyridin-2-yl)-3-(4-fluoro-3-methoxybenzyl)-1H-imidazol-2(3H)-one], the IC50 was 20.1 to 200 nM.
Work on `O=c1n(Cc2cccc(OCC3CC3)c2)ccn1-c1ccc(-c2cn[nH]c2)cn1` [Example 347, 1-(5-(1H-pyrazol-4-yl)pyridin-2-yl)-3-(3-(cyclopropylmethoxy)benzyl)-1H-imidazol-2(3H)-one] yielded an IC50 of 20.1 to 200 nM.
`CCc1cc(-n2ccn(Cc3ccc(F)c(OC)c3)c2=O)ccc1-c1cn[nH]c1` [Example 348, 1-(3-ethyl-4-(1H-pyrazol-4-yl)phenyl)-3-(4-fluoro-3-methoxybenzyl)-1H-imidazol-2(3H)-one] showed an IC50 of 20.1 to 200 nM.
In the case of `COc1cccc(C(C(=O)O)n2ccn(-c3ccc(-c4cn[nH]c4)cn3)c2=O)c1` (stereo not shown) [Example 351, 2-(3-(5-(1H-pyrazol-4-yl)pyridin-2-yl)-2-oxo-2,3-dihydro-1H-imidazol-1-yl)-2-(3-methoxyphenyl)acetic acid], the IC50 is reported as 200 to 2000 nM.
With `COc1cccc(C(C(=O)O)n2ccn(-c3ccc(-c4cn[nH]c4)c(OC)c3)c2=O)c1` (stereo not shown) [Example 352, 2-(3-(3-methoxy-4-(1H-pyrazol-4-yl)phenyl)-2-oxo-2,3-dihydro-1H-imidazol-1-yl)-2-(3-methoxyphenyl)acetic acid] the IC50 was 200 to 2000 nM.
With `COc1ccc(F)c(Cn2ccn(-c3ccc(-c4cn[nH]c4)c(OC)n3)c2=O)c1` [Example 373, 1-(2-fluoro-5-methoxybenzyl)-3-(6-methoxy-5-(1H-pyrazol-4-yl)pyridin-2-yl)-1H-imidazol-2(3H)-one] the IC50 was < 2 nM.
Work on `COc1ccc(F)cc1Cn1ccn(-c2ccc(-c3cn[nH]c3)c(OC)n2)c1=O` [Example 374, 1-(5-fluoro-2-methoxybenzyl)-3-(6-methoxy-5-(1H-pyrazol-4-yl)pyridin-2-yl)-1H-imidazol-2(3H)-one] yielded an IC50 of 2.1 to 20 nM.
`COc1nc(-n2ccn(Cc3cccc(F)c3F)c2=O)ccc1-c1cn[nH]c1` [Example 375, 1-(2,3-difluorobenzyl)-3-(6-methoxy-5-(1H-pyrazol-4-yl)pyridin-2-yl)-1H-imidazol-2(3H)-one] was tested, and the IC50 was 2.1 to 20 nM.
With `COc1cccc(Cn2ccn(-c3ccc(-c4cn[nH]c4)c(OC)n3)c2=O)c1` [Example 376, 1-(6-methoxy-5-(1H-pyrazol-4-yl)pyridin-2-yl)-3-(3-methoxybenzyl)-1H-imidazol-2(3H)-one] the IC50 was < 2 nM.
`COc1nc(-n2ccn(Cc3ccc(F)c(OCC4CC4)c3)c2=O)ccc1-c1cn[nH]c1` [Example 377, 1-(3-(cyclopropylmethoxy)-4-fluorobenzyl)-3-(6-methoxy-5-(1H-pyrazol-4-yl)pyridin-2-yl)-1H-imidazol-2(3H)-one] was tested, and the IC50 was 2.1 to 20 nM.
`COc1nc(-n2ccn(Cc3cccc(OCC4CC4)c3)c2=O)ccc1-c1cn[nH]c1` [Example 378, 1-(3-(cyclopropylmethoxy)benzyl)-3-(6-methoxy-5-(1H-pyrazol-4-yl)pyridin-2-yl)-1H-imidazol-2(3H)-one] was tested, and the IC50 was < 2 nM.
`COc1nc(-n2ccn(Cc3cccc(F)c3C)c2=O)ccc1-c1cn[nH]c1` [Example 380, 1-(3-fluoro-2-methylbenzyl)-3-(6-methoxy-5-(1H-pyrazol-4-yl)pyridin-2-yl)-1H-imidazol-2(3H)-one] was tested, and the IC50 was < 2 nM.
With `COc1nc(-n2ccn(Cc3ccc(F)cc3C)c2=O)ccc1-c1cn[nH]c1` [Example 381, 1-(4-fluoro-2-methylbenzyl)-3-(6-methoxy-5-(1H-pyrazol-4-yl)pyridin-2-yl)-1H-imidazol-2(3H)-one] the IC50 was 2.1 to 20 nM.
`COc1nc(-n2ccn(Cc3cc(F)ccc3C)c2=O)ccc1-c1cn[nH]c1` [Example 382, 1-(5-fluoro-2-methylbenzyl)-3-(6-methoxy-5-(1H-pyrazol-4-yl)pyridin-2-yl)-1H-imidazol-2(3H)-one] showed an IC50 of 2.1 to 20 nM.
In the case of `COc1cc(F)ccc1Cn1ccn(-c2ccc(-c3cn[nH]c3)c(OC)n2)c1=O` [Example 383, 1-(4-fluoro-2-methoxybenzyl)-3-(6-methoxy-5-(1H-pyrazol-4-yl)pyridin-2-yl)-1H-imidazol-2(3H)-one], the IC50 is reported as 20.1 to 200 nM.
In the case of `COc1nc(-n2ccn(Cc3cc(F)cc(OCC4CC4)c3)c2=O)ccc1-c1cn[nH]c1` [Example 395, 1-(3-(cyclopropylmethoxy)-5-fluorobenzyl)-3-(6-methoxy-5-(1H-pyrazol-4-yl)pyridin-2-yl)-1H-imidazol-2(3H)-one], the IC50 is reported as 2.1 to 20 nM.
`O=c1n(Cc2cc(F)cc(OCC3CC3)c2)ccn1-c1ccc(-c2cn[nH]c2)cc1` [Example 396, 1-(4-(1H-pyrazol-4-yl)phenyl)-3-(3-(cyclopropylmethoxy)-5-fluorobenzyl)-1H-imidazol-2(3H)-one] gave an IC50 of 20.1 to 200 nM.
`Cc1c(F)cccc1Cn1ccn(-c2ccc(-c3cn[nH]c3)cc2)c1=O` [Example 402, 1-(4-(1H-pyrazol-4-yl)phenyl)-3-(3-fluoro-2-methylbenzyl)-1H-imidazol-2(3H)-one] was tested, and the IC50 was 2.1 to 20 nM.
